Test results taken from patent US8252768B2, “Designer therapy of pancreatic tumors” (University of Miami, priority 2006, dated 2012).
Like-named read-outs stand apart in the source and are kept apart here. Marks after values point to notes of the source that are not given here.

Tests used:
[1] = tested on: PC-3 cells; assay: Radiosensitization of cells in culture (Cobalt 60, clonogenic survival); type: cell-based, human
Method: (§1) Toxicity and Radiation Studies: The methods using clonogenic assays described by Perez and Greer (Int. J. Rad. Oncology: Biology, Physics 12, 1523-1527, 1986—incorporated herein by reference in its entirety) were followed.
(§2) Irradiation of Cells in Culture: 2×10^5 cells were plated in 25 cm^2 flasks and grown for 18 hr at 37° C. in a humidified 5% CO2 atmosphere. The medium was then removed and replaced with medium containing the appropriate drug concentrations and incubated for 72 hrs then removed and the cell monolayers were rinsed twice with PBS. The flasks were then filled with 50 ml of radiation medium (3 parts RPMI 1640 and 7 parts PBS plus antibiotics and glutamine). The cells were then irradiated using a Cobalt 60 irradiator. The cell monolayers were placed 35 cm away from the source and irradiated for appropriate times according to the dose rate. The dose rate was calculated, at this distance, using ionization chambers. Attenuation factors due to the polystyrene flask (0.9923) and the medium (H2O=0.8715) were considered in calculating the exposure period.
(§3) After irradiation the cell monolayers were washed again, replenished with growth media, and incubated for 1½ hours. The cell monolayers were then trypsinized and the cells serially diluted, appropriate dilutions were then plated in 60 mm dishes and incubated for 7-9 days at 37° C. and CO2. At the end of this period the cells were stained with crystal violet and the colony forming ability determined by considering 25 or more normal cells as a viable colony. The viabilities were determined and the appropriate survival curves derived. All conditions were done in duplicate using two flasks treated under identical conditions.

[2] = tested on: T24 cells; assay: as above; type: cell-based, human
Method: as §1, §2, §3

[3] = tested on: uridine/cytidine kinase; assay: Competition assay for substrates of uridine/cytidine kinase, crude extracts of T24 cells; type: biochemical, human
Method: 2 mM dithiothreitol (DTT) and 0.5 mM phenylmethylsulfanyl fluoride were added just before extraction. The tissue sample was homogenized in a Dounce glass homogenizer and then sonicated for 3 five-second pulses in a Branson Sonifier with a micro-tip at 25 KHz to disrupt the cells. During homogenization and sonication the extract was kept cold throughout the procedures. The tissue extract was then centrifuged at 14,000×g at 4° C. for 15 min., and the supernatant (the crude enzyme extract) was removed. The supernatant was sheared 20 times on ice utilizing a 1 cc syringe with a 27 G½ needle to reduce viscosity. […] 2 mM DTT and 340 μM H4U were added just before the assay. Finally, to the reaction mixture, 5 μl 200 mM creatine phosphate and creatine phosphokinase (0.5 unit/μl) was added to 150 μl of the section mixture. […] H2O bath for 1 minute before 20 μl of the crude enzyme extract was added to initiate the reaction. […] At 0, 30 and 60 minutes the reaction mixture, divided in separate tubes, was heated in a boiling water bath for 2 minutes to terminate the reaction. Denatured protein was then removed by centrifugation of the sample for 2 minutes at 14,000×g. The amount of nucleotide formed was determined by spotting 20 μl aliquots of the reaction mixture onto DE-81 2.2 cm Whatman filter discs. After air drying, the unphosphorylated substrate nucleoside was removed by washing twice for 10 min. in 20 mM ammonium formate and twice for 5 min. in deionized H2O with gentle stirring. A control, lacking the crude enzyme extract was included with each determination. The washed papers were dried under a heat lamp and then placed into individual scintillation vials, eluted for 30 min. in 1 ml of 0.1M HCl-0.1M KCL and then vortexed in 5 ml of scintillation fluid and counted. Enzyme activity was expressed as pmoles/min/mg protein.
When uridine was utilized as substrate, benzacyclouridine was added to prevent the catabolism of the substrate by uridine phosphorylase and tetrahydrouridine was omitted.

[4] = molecular target: deoxycytidine kinase (dCK) (Homo sapiens, UniProt P27707); assay: Competition assay for substrates of deoxycytidine kinase, crude extracts of PC-3 cells
Sequence of deoxycytidine kinase (dCK) (P27707 whole entry): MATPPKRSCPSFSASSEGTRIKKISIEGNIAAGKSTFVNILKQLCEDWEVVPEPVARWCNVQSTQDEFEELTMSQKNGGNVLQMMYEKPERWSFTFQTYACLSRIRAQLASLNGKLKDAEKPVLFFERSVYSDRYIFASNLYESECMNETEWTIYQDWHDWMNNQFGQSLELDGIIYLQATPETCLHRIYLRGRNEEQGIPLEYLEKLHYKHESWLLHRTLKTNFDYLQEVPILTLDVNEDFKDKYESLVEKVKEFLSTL

[5] = molecular target: T1, cytidine deaminase (CD) (Homo sapiens, UniProt P32320); assay: Competition assay for substrates of cytidine deaminase, crude extracts of PC-3 cells; type: biochemical
T1 construct: Crude extracts of PC-3 cells in culture were prepared as described above; endogenous in cells; host or cells: PC-3 cells (crude extract supernatant)
T1 sequence (P32320 whole entry): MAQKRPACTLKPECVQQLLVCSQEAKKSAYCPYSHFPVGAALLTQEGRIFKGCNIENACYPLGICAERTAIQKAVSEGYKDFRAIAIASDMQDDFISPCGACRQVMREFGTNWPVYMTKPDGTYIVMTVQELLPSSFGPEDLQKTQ
Method: (§4) The crude enzyme extract (the supernatant of a 10 minute 14,000×g centrifugation) was then added. When cytidine was used as substrate, assays were conducted with benzacyclouridine to inhibit uridine phosphorylases. […] After 0, 15, and 30 minutes, the reaction was stopped and denatured protein removed as above for dC Kinase. […] Aliquots were then spotted on PE cellulose TLC sheets and the reactants separated with a solvent system composed of isopropanol:HCl:H2O (170:41:39). […] The nucleosides were visualized under U.V. light and the spots cut out and counted. […] Enzyme activity was expressed as nmole formed in 30 min/mg/protein.
Competition assays to determine Substrate Specificity: Crude extracts of PC-3 cells in culture were prepared as described above. Two concentrations of crude extract were utilized for the studies as determined from the analysis of protein.
The assays were run for 0, 15, and 30 minutes.

[6] = tested on: PC-3 cells; assay: Cytotoxicity (clonogenic) assay, 72 h drug exposure; type: cell-based, human
Method: as §1
Cytotoxicity Assays: 5×10^5 cells were plated in 60 mm tissue culture dishes in 5 mls of the optimal growth media for the particular cell line in an humidified 95% air-5% CO2 atmosphere. The plates were incubated for 18-20 hours to allow for attachment and log-phase growth to begin. At the end of this period the growth medium was aspirated and replaced with […]. Four times (4×) concentrated solutions were prepared and then 1 ml was added to the plates; and growth media were then added to a total volume of […]. The plates were then incubated for 72 hours and the cells harvested by trypsinization. The cells were then serially diluted in growth medium replated into 60 mm dishes and incubated for 6 to 9 days depending on the cell line. After this incubation period, the media was aspirated and the colonies were washed twice with a PBS solution. The colonies were then stained with a 0.2% crystal violet-20% ethanol solution for 5 min. the stain was removed, the colonies were washed and air dried. A viable colony was one consisting of 25 or more normal appearing cells and was considered to have arisen from a single cell. The colonies were counted under a dissecting microscope. Two to three dilutions for every condition were plated. Dishes containing 30-300 colonies were used in the calculation and all conditions were done in duplicate.

[7] = molecular target: T2, dCMP deaminase (Mus musculus, UniProt Q8K2D6); assay: Inhibition of dCMP deaminase after H4U in mice bearing Lewis lung carcinoma; type: in vivo, BD2F1 mice; conditions: for % of inhibition of dCMP deaminase of tumor: 30 min
T2 construct: deaminase activity of tumor, serum and other tissues assayed 30 min after H4U; from tissue; host or cells: tumor (Lewis lung carcinoma), serum and other tissues of BD2F1 mice
T2 sequence (Q8K2D6 1-178): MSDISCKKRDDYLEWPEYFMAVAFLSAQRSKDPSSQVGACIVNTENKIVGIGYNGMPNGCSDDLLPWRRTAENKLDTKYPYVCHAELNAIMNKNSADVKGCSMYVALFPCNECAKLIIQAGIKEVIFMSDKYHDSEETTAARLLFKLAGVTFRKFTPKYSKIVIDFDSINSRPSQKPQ
Method: dCMP Deaminase Activity: The crude enzyme extract was prepared as described in A. The reaction was carried out in 60 mM Tris HCl, pH 8.0, and 50 μm dCTP, 2.5 mM MgCl2, 30 mM NaF, and 80% H2O to which dCMP (^3H labeled) was added to a final concentration of 2 mM; 20 μl of enzyme extract was added to initiate the reaction giving a total volume of […]. […] A control lacking enzyme was included with each determination. The reaction was terminated as described above in at 0, 30 and 45 minutes and denatured protein was removed by centrifugation as described above. To 10 μl of the supernatant, 6 μl of a 0.03M solution of the carrier nucleotides, dCMP and dUMP were added so that the reactants can be visualized under a UV lamp. Chromatographic isolation of the products was carried out in 2 different solvent systems: A) Baker DEAE Cellulose TLC sheets in 0.01N HCl for 35 min. […] Each appropriate area of the thin layer sheets (where dCMP and dUMP were separated), were cut into small pieces and placed in separate vials and extracted with 1N HCl (1 ml) for 30 minutes. Scintillation cocktail was added (5 ml) to the vials which were vortexed prior to counting. The specific activity was expressed as nmoles/min/mg protein.

[8] = molecular target: T3, cytidine deaminase (Mus musculus, UniProt P56389); assay: Inhibition of tissue cytidine deaminase in mice bearing mammary adenocarcinoma-755 (FIG. 6); type: in vivo, BD2F1 mice; conditions: H4U 25 mg/kg or deoxytetrahydrouridine 100 mg/kg i.p.; 60 min
T3 construct: from tissue; host or cells: Lewis lung carcinoma, liver, spleen, intestine, bone marrow, kidney, skeletal muscle and serum of BD2F1 mice
T3 sequence (P56389 whole entry): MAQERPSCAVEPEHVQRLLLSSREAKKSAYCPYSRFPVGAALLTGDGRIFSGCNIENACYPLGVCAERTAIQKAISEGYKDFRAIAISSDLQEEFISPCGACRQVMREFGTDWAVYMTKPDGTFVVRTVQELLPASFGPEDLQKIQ
Method: as §4

[9] = tested on: Lewis lung carcinoma; assay: Mean day of death (T/C), Lewis lung carcinoma in mice; type: in vivo, BD2F1 mice
Method: ; The efficacy of the drug, F3methyldC followed the pattern of Selectivity. The mean day of death (Tumor/Control) was 1.3, 1.6, 1.8 and 1.4 for 10, 25, 50 and 75 mg/kg H4U, respectively. […].

[10] = competition studies, human tumor cell extracts

In the case of `O=c1[nH]c(=O)n([C@@H]2O[C@H](CO)[C@@H](O)[C@H]2O)cc1Cl` [5-Chlorouridine], the “radiosensitization of PC-3 cells (in words)” value ([1]; PC-3 cells) is reported as “effective radiosensitizer”, the “radiosensitization of T24 cells (in words)” value [2] is reported as “effective radiosensitizer” and the “radiosensitization of T24 cells (in words)” value ([2]; listed as Chlorouridine) is reported as “compared very favorably with the other established Radiosensitizers”. For the same compound, the “substrate for U/C kinase of T24 cells (in words)” value [3] was “moderate substrates”, the “% Inhibitation (U/C kinase)” value ([3]; competitor 100 μM, substrate 3H-Cytidine 8.3 μM) was 8% and the “% Inhibitation (U/C kinase)” value ([3]; competitor 100 μM, substrate 3H-Uridine 16.7 μM) was 11%. For the same compound, the “% Inhibitation (U/C kinase)” value ([3]; competitor 250 μM, substrate 3H-Cytidine 8.3 μM) was 21%, the “% Inhibitation (U/C kinase)” value ([3]; competitor 250 μM, substrate 3H-Uridine 16.7 μM) was 22% and the “% Inhibitation (U/C kinase)” value ([3]; competitor 500 μM, substrate 3H-Cytidine 8.3 μM) was 32%. For the same compound, the “% Inhibitation (U/C kinase)” value ([3]; competitor 500 μM, substrate 3H-Uridine 16.7 μM) was 24%, the “% Inhibitation (U/C kinase)” value ([3]; competitor 750 μM, substrate 3H-Cytidine 8.3 μM) was 39% and the “% Inhibitation (U/C kinase)” value ([3]; competitor 750 μM, substrate 3H-Uridine 16.7 μM) was 32%.

For `Nc1nc(=O)n([C@H]2C[C@H](O)[C@@H](CO)O2)cc1I` [5-IdC, 5-Iodo-2′-deoxycytidine], the “substrate for deoxycytidine kinase (in words)” value [4, 10] was “very poor substrates”, the inhibition at 250 µM ([4]; read-out: % Inhibition (dCK)) was 0% and the “effect of thymidine on radiosensitization (in words)” value ([1]; cells in culture) was “antagonized by thymidine”. For the same compound, the “effect of tetrahydrouridine (H4U) on radiosensitization (in words)” value ([1]; cells in culture, listed as 5-Iododeoxycytidine) was “reversal by H4U”, the “effect of tetrahydrouridine (H4U) on radiosensitization (in words)” value ([1]; cells in culture, listed as IdC) was “greater radiosensitization than IdC alone” and the “substrate for cytidine deaminase (in words)” value [5, 10] was “good substrates”. For the same compound, the inhibition at 250 µM ([5]; competitor 250 μM, substrate 3H-Deoxycytidine 25 μM, ratio 10, PC-3 extracts) was 60%, the “effect of tetrahydrouridine (H4U) on cytotoxicity / viability (in words)” value [6] was “antagonized by Tetrahydrouridine” and the “effect of thymidine on cytotoxicity (in words)” value [6] was “antagonized by thymidine”. The “effect of tetrahydrouridine (H4U) on cytotoxicity / viability (in words)” value ([6]; human, 72 h) was “reversal by H4U”, the “% S” value ([6]; nucleoside 5 μM, H4U 0 μM) was 15% and the “% S” value ([6]; nucleoside 5 μM, H4U 5 μM) was 100%. For the same compound, the “% S” value ([6]; nucleoside 5 μM, H4U 100 μM) was 97%, the “% S” value ([6]; nucleoside 5 μM, H4U 1500 μM) was 100% and the “% S” value ([6]; nucleoside 10 μM, H4U 5 μM) was 53%. For the same compound, the “% S” value ([6]; nucleoside 10 μM, H4U 100 μM) was 73%, the “% S” value ([6]; nucleoside 10 μM, H4U 1500 μM) was 89% and the “% S” value ([6]; nucleoside 20 μM, H4U 5 μM) was 30%. For the same compound, the “% S” value ([6]; nucleoside 20 μM, H4U 100 μM) was 65% and the “% S” value ([6]; nucleoside 20 μM, H4U 1500 μM) was 61%.

With `O=C1NC(O)CCN1[C@H]1C[C@H](O)[C@@H](CO)O1` (stereo partly drawn) [Deoxytetrahydrouridine] the “selective inhibition of dCMP deaminase of normal tissue (in words)” value ([7]; mouse, in vivo) was “not selectively inhibited” and the “selectivity of inhibition: tumor CD vs CD of normal tissues (in words)” value [8] was “did not display a selective inhibition”.

`O=C1NC(O)CCN1[C@@H]1O[C@H](CO)[C@@H](O)[C@H]1O` (stereo partly drawn) [Tetrahydrouridine] was tested, and the “% of inhibition of dCMP deaminase of tumor” value (from here on “% of inhibition … of tumor”) ([7]; H4U 10 mg/kg, footnote: less than 5% enzyme inhibition) was 0^d %, the “% of inhibition … of tumor” value ([7]; H4U 25 mg/kg) was 0% and the “% of inhibition … of tumor” value ([7]; H4U 50 mg/kg) was 0%. The “% of inhibition … of tumor” value ([7]; H4U 75 mg/kg) was 0%, the “MDD T/C (mean day of death)” value ([9]; H4U 10 mg/kg with F3methyldC) was 1.25 and the “MDD T/C (mean day of death)” value ([9]; H4U 25 mg/kg with F3methyldC, mean ± SE) was 1.63 ± 0.07^e. The “MDD T/C (mean day of death)” value ([9]; H4U 50 mg/kg with F3methyldC, mean ± SE) was 1.78 ± 0.06, the “MDD T/C (mean day of death)” value ([9]; H4U 75 mg/kg with F3methyldC) was 1.44 and the “% Inhibitation (U/C kinase)” value ([3]; competitor 1500 μM, substrate 3H-Cytidine 8.3 μM) was 1.5%. The “% Inhibitation (U/C kinase)” value ([3]; competitor 1500 μM, substrate 3H-Uridine 16.7 μM) was 1.7% and the “% S” value ([6]; no nucleoside, H4U 100 μM alone) was 100%.
